Measured values as given in US6376497B1, “Antifungal azole derivatives having a fluorinated vinyl group and process for preparing same” (Korea Research Institute of Chemical Technology, priority 1999, dated 2002).
Converted amounts (≈) assume the structure as drawn.

Key:
Experiment in all cases: In vitro antifungal activity, microbroth dilution MIC
Format in all cases: cell-based
[1] = system: Candida albicans C1-2; settings: 4 to 48 hours; for Minimal inhibitory concentration (MIC): C. albicans C1-2, RPMI-1640, 35° C.
Summary of the method: (§1)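 Broth microdilution adapted from NCCLS M27, in RPMI-1640 with 0.165 M MOPS, pH 7.0. Yeast or mould inoculum at 2×10^3 CFU/ml was mixed 1:1 with DMSO-derived compound solutions (200 to 0.10 μg/ml before mixing) and incubated at 35 °C for 4 to 48 h. MIC was the concentration showing no growth.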

[2] = system: Candida albicans A. 10231; settings: 4 to 48 hours; for Minimal inhibitory concentration (MIC): C. albicans A. 10231, RPMI-1640, 35° C.
Summary of the method: as §1

[3] = system: Cryptococcus neoformans B. 42419; settings: 4 to 48 hours; for Minimal inhibitory concentration (MIC): Cry. neoformans B. 42419, RPMI-1640, 35° C.
Summary of the method: as §1

[4] = system: Aspergillus niger A. 16404; settings: 4 to 48 hours; for Minimal inhibitory concentration (MIC): A. niger A. 16404, RPMI-1640, 35° C.
Summary of the method: as §1

[5] = system: Candida tropicalis A. 13803; settings: 4 to 48 hours; for Minimal inhibitory concentration (MIC): C. tropicalis A. 13803, RPMI-1640, 35° C.
Summary of the method: as §1

[6] = system: Cryptococcus neoformans IFM. 40092; settings: 4 to 48 hours; for Minimal inhibitory concentration (MIC): Cry. neoformans IFM. 40092, RPMI-1640, 35° C.
Summary of the method: as §1

[7] = system: Aspergillus furnigatus B. 19119; settings: 4 to 48 hours; for Minimal inhibitory concentration (MIC): A furnigatus B. 19119, RPMI-1640, 35° C.
Summary of the method: as §1

[8] = system: Candida krusei K. 11655; settings: 4 to 48 hours; for Minimal inhibitory concentration (MIC): C. krusei K. 11655, RPMI-1640, 35° C.
Summary of the method: as §1

[9] = system: Trichophyton mentagrophytes B. 32663; settings: 4 to 48 hours; for Minimal inhibitory concentration (MIC): T. mentagrophytes B. 32663, RPMI-1640, 35° C.
Summary of the method: as §1

[10] = system: Torulopsis glabrata B. 16205; settings: 4 to 48 hours; for Minimal inhibitory concentration (MIC): T. glabrata B. 16205, RPMI-1640, 35° C.
Summary of the method: as §1

[11] = system: Candida parapsitosis A. 7330; settings: 4 to 48 hours; for Minimal inhibitory concentration (MIC): C. parapsitosis A. 7330, RPMI-1640, 35° C.
Summary of the method: as §1

[12] = system: Candida pseudotropicalis K. 11658; settings: 4 to 48 hours; for Minimal inhibitory concentration (MIC): C. pseudotropicalis K. 11658, RPMI-1640, 35° C.
Summary of the method: as §1

[13] = system: Cryptococcus neoformans A. 34144; settings: 4 to 48 hours; for Minimal inhibitory concentration (MIC): Cry. neoformans A. 34144, RPMI-1640, 35° C.
Summary of the method: as §1

[14] = system: Candida albicans IFO. 1385; settings: 4 to 48 hours; for Minimal inhibitory concentration (MIC): C. albicans IFO. 1385, RPMI-1640, 35° C.
Summary of the method: as §1

[15] = system: Trichophyton mentagrophytes A. 9129; settings: 4 to 48 hours; for Minimal inhibitory concentration (MIC): T. mentagrophytes A. 9129, RPMI-1640, 35° C.
Summary of the method: as §1

[16] = RPMI-1640, 35° C., no growth observed

| Minimal inhibitory concentration (MIC) [1] | Minimal inhibitory concentration (MIC) [2] | Minimal inhibitory concentration (MIC) [3] | Minimal inhibitory concentration (MIC) [4] | Minimal inhibitory concentration (MIC) [5] | Minimal inhibitory concentration (MIC) [6] | Minimal inhibitory concentration (MIC) [7] | Minimal inhibitory concentration (MIC) [8] | Minimal inhibitory concentration (MIC) [9] | Minimal inhibitory concentration (MIC) [10] | Minimal inhibitory concentration (MIC) [11] | Minimal inhibitory concentration (MIC) [12] | Minimal inhibitory concentration (MIC) [13] | Minimal inhibitory concentration (MIC) [14] | Minimal inhibitory concentration (MIC) [15] | SMILES | further results |
| --- | --- | --- | --- | --- | --- | --- | --- | --- | --- | --- | --- | --- | --- | --- | --- | --- |
| 12.5 µg/mL (≈ 25.4 µM) | 12.5 µg/mL (≈ 25.4 µM) | 1.56 µg/mL (≈ 3.17 µM) | 12.5 µg/mL (≈ 25.4 µM) | 25.0 µg/mL (≈ 50.9 µM) | 0.78 µg/mL (≈ 1.59 µM) | 6.25 µg/mL (≈ 12.7 µM) | 12.5 µg/mL (≈ 25.4 µM) | 1.56 µg/mL (≈ 3.17 µM) | 6.25 µg/mL (≈ 12.7 µM) | 12.5 µg/mL (≈ 25.4 µM) | 12.5 µg/mL (≈ 25.4 µM) | 1.56 µg/mL (≈ 3.17 µM) | 1.56 µg/mL (≈ 3.17 µM) | 6.25 µg/mL (≈ 12.7 µM) | Cc1cc(C)c(C=C(F)OCC2COC(Cn3ccnc3)(c3ccc(Cl)cc3Cl)O2)cc1C (stereo not drawn) [Ex. 7] |  |
|  |  |  |  |  |  |  |  |  |  |  |  |  |  |  | FC(Oc1ccc(OCC2COC(Cn3ccnc3)(c3ccc(F)cc3F)O2)cc1)=C(c1cc(Cl)cc(Cl)c1)C(F)(F)F (mixture of isomers) [Ex. 116] | Minimal inhibitory concentration(MIC), C. albicans C1-2 [1, 16]: 100 µg/mL; Minimal inhibitory concentration(MIC), C. albicans A. 10231 [2, 16]: 100 µg/mL; Minimal inhibitory concentration(MIC), Cry. neoformans B. 42419 [3, 16]: 1.56 µg/mL; Minimal inhibitory concentration(MIC), A. niger A. 16404 [4, 16]: >100 µg/mL; Minimal inhibitory concentration(MIC), C. tropicalis A. 13803 [5, 16]: >100 µg/mL; Minimal inhibitory concentration(MIC), Cry. neoformans IFM. 40092 [6, 16]: 0.20 µg/mL; Minimal inhibitory concentration(MIC), A furnigatus B. 19119 [7, 16]: >100 µg/mL; Minimal inhibitory concentration(MIC), C. krusei K. 11655 [8, 16]: 100 µg/mL; Minimal inhibitory concentration(MIC), T. mentagrophytes B. 32663 [9, 16]: 3.13 µg/mL; Minimal inhibitory concentration(MIC), T. glabrata B. 16205 [10, 16]: 50.0 µg/mL; Minimal inhibitory concentration(MIC), C. parapsitosis A. 7330 [11, 16]: 100 µg/mL; Minimal inhibitory concentration(MIC), C. pseudotropicalis K. 11658 [12, 16]: 25.0 µg/mL; Minimal inhibitory concentration(MIC), Cry. neoformans A. 34144 [13, 16]: 1.56 µg/mL; Minimal inhibitory concentration(MIC), C. albicans IFO. 1385 [14, 16]: 3.13 µg/mL; Minimal inhibitory concentration(MIC), T. mentagrophytes A. 9129 [15, 16]: 6.25 µg/mL |
| 6.25 µg/mL (≈ 13.5 µM) | 6.25 µg/mL (≈ 13.5 µM) | 3.13 µg/mL (≈ 6.76 µM) | 3.13 µg/mL (≈ 6.76 µM) | 25.0 µg/mL (≈ 54 µM) | 1.56 µg/mL (≈ 3.37 µM) | 3.13 µg/mL (≈ 6.76 µM) | 12.5 µg/mL (≈ 27 µM) | 1.56 µg/mL (≈ 3.37 µM) | 6.25 µg/mL (≈ 13.5 µM) | 12.5 µg/mL (≈ 27 µM) | 12.5 µg/mL (≈ 27 µM) | 3.13 µg/mL (≈ 6.76 µM) | 0.78 µg/mL (≈ 1.68 µM) | 1.56 µg/mL (≈ 3.37 µM) | Cc1cccc(C=C(F)OCC2COC(Cn3ccnc3)(c3ccc(Cl)cc3Cl)O2)c1 (stereo not drawn) [Ex. 2] |  |

| SMILES | Minimal inhibitory concentration (MIC) [1] | Minimal inhibitory concentration (MIC) [2] | Minimal inhibitory concentration (MIC) [3] | Minimal inhibitory concentration (MIC) [4] | Minimal inhibitory concentration (MIC) [5] | Minimal inhibitory concentration (MIC) [6] | Minimal inhibitory concentration (MIC) [7] | Minimal inhibitory concentration (MIC) [8] | Minimal inhibitory concentration (MIC) [9] | Minimal inhibitory concentration (MIC) [10] | Minimal inhibitory concentration (MIC) [11] | Minimal inhibitory concentration (MIC) [12] | Minimal inhibitory concentration (MIC) [13] | Minimal inhibitory concentration (MIC) [14] | Minimal inhibitory concentration (MIC) [15] | further results |
| --- | --- | --- | --- | --- | --- | --- | --- | --- | --- | --- | --- | --- | --- | --- | --- | --- |
| FC(=Cc1ccccc1)OC[C@H]1CO[C@](Cn2ccnc2)(c2ccc(Cl)cc2Cl)O1 (relative stereo) [Example 1, (E&Z) 1-[cis-2-(2,4-dichlorophenyl)-2-(1H-1-imidazolylmethyl)-1,3-dioxolan-4-ylmethoxy]-1-fluoro-2-phenyl-1-ethene] | 25.0 µg/mL (≈ 55.6 µM) | 25.0 µg/mL (≈ 55.6 µM) | 0.39 µg/mL (≈ 0.868 µM) | 1.56 µg/mL (≈ 3.47 µM) | 50.0 µg/mL (≈ 111 µM) | 0.20 µg/mL (≈ 0.445 µM) | 1.56 µg/mL (≈ 3.47 µM) | 6.25 µg/mL (≈ 13.9 µM) | 0.20 µg/mL (≈ 0.445 µM) | 25.0 µg/mL (≈ 55.6 µM) | 6.25 µg/mL (≈ 13.9 µM) | 6.25 µg/mL (≈ 13.9 µM) | 0.39 µg/mL (≈ 0.868 µM) | 3.13 µg/mL (≈ 6.97 µM) | ≦0.10 μg/ml |  |
